Positions of bridges follow the written chain, without caps; N, C: chain ends. Non-standard residues stand in square brackets, D forms with d. Residues, ends and D or L forms follow the SMILES beside them. *: point of attachment. R8 = C=CCCCCCC[C@@](C)(N)C(=O)O; S5 = C=CCCC[C@](C)(N)C(=O)O; Cbz = O=C(OCc1ccccc1)*; CH2F = FC*
How the values were obtained:
SHP-77 cells [1] = settings: for rescue of Tat-SP4-induced cell death by cell death program inhibitor: 10 μM Tat-SP4, 24 h, trypan blue exclusion; for rescue of Tat-SP4-induced cell death by cell death program inhibitor / rescue of Tat-SP4-induced cell death by uptake pathway inhibitor: n = 3
Protocol: (§1) Cell viability was measured by a trypan blue exclusion assay following the standard protocol provided by the manufacturer. SHP-77 cells and H146 cells were plated into 96-well plates at a density of 2 × 10^4 cells/well. Upon cell attachment, cells were treated with the graded concentrations of Tat-SP4 for 24 h. The IC50 value was calculated from the curve fitted to concentration–response data sets. All experiments were repeated in triplicate, and the mean was calculated. For the 5-day growth curve, cells were seeded into a 24-well plate at 2.5 × 10^4 cells/well for SHP-77 and H146 cells. Cells were treated with 10 μM Tat-SP4. Cells were allowed to grow for up to 5 days post-treatment, and the viable cell number was checked every 24 hours with the trypan blue exclusion assay. For cell death rescue assays, SHP-77 cells were first plated overnight in 96-well plates. Tat-SP4 was added to the cells, together with inhibitors for apoptosis, ferroptosis, necroptosis, or autosis. After 24 h treatment, the cell viability was measured by the trypan blue exclusion assay.
Figure 3 Cell death induced by Tat-SP4 is rescued by an inhibitor of autosis but not by inhibitors for other cell death programs. (A) Flow cytometry analysis using Annexin V FITC-PI staining was conducted on SHP-77 cells after indicated hours of treatment with the Tat-SP4. […] (B) In the absence or presence of Z-VAD-FMK, SHP-77 cells treated with Tat-SP4 or cisplatin for 24 h. (C) SHP-77 cells were pretreated with ferroptosis inhibitor, ferrostatin-1, followed by 10 μM Tat-SP4 or 5 μM Erastin treatment for 24 h. […] (D) SHP-77 cells were treated with Tat-SP4 at 10 μM for 24 h, either in the presence or absence of necrostatin-1, respectively. […] (E) SHP-77 cells were pretreated with digoxin for 2 h, followed by the treatment of Tat-SP4 for 12 h. Cell viability was measured by trypan blue exclusion assay. Data are presented as mean ± SEM (n = 3). ** p < 0.01, **** p < 0.0001; unpaired t-test. TEXT PRINTED IN THE PICTURE: (A) Tat-SP4: Q1-UL 15.9% (10μM; 3h); Dead 30.5% (10μM; 3h); Live 48.8% (10μM; 3h); Apoptotic 4.8% (10μM; 3h); Q1-UL 51.4% (10μM; 6h); Dead 4.7% (10μM; 6h); Live 43.6% (10μM; 6h); Apoptotic 0.2% (10μM; 6h) DOUBTS OF THE COPYIST ABOUT THIS PICTURE: Tat-SP4 3h, Q1-UL 15.9%: very small print, 5 and 9 uncertain / Tat-SP4 3h, Dead 30.5%: very small print, 3 and 5 uncertain / Tat-SP4 3h, Live 48.8%: very small print, partly overlaid by the plot edge, both 8s uncertain / Tat-SP4 3h, Apoptotic 4.8%: very small print, 8 uncertain / Tat-SP4 6h, Q1-UL 51.4%: very small print, 5 uncertain / Tat-SP4 6h, Dead 4.7%: very small print, digits uncertain / Tat-SP4 6h, Live 43.6%: very small print, 3 and 6 uncertain / Tat-SP4 6h, Apoptotic 0.2%: very small print, digits uncertain
Figure 5 The cellular uptake process of Tat-SP4 is energy- and macropinocytosis-dependent. (A) Representative flow cytometry plot of SHP-77 cells stained with Rhod-SP4 at 10 μM at 4 °C, room temperature, and 37 °C for an hour, respectively. The fluorescence intensity of Rhod-SP4 increases with increasing temperature. (B) Mean fluorescence intensity of Rhod-SP4 from (A). The bar graph represents a single experiment without replicates. (C) Representative flow cytometry plot of SHP-77 cells stained with Rhod-SP4 at 10 μM at 37 °C for an hour, in the presence or absence of various inhibitors. AM, Amiloride; MβCD, Methyl-beta cyclodextrin. Cells were pretreated with different inhibitors for 30 min, followed by staining with Rhod-SP4 at 10 μM. (D) Mean fluorescence intensity of Rhod-SP4 from (C). The bar graph represents a single experiment without replicates. (E–G) Assess the effect of different inhibitors of cell-penetrating peptides uptake pathways on Tat-SP4-induced cell death. […] Data are presented as mean ± SEM (n = 3). * p < 0.05; unpaired t-test.

H146 cells = assay: Trypan blue exclusion cell viability assay, 24 h; format: cell-based; settings: 24 h treatment, triplicate, mean, read-out: cytotoxicity IC50
Protocol: as §1
(§2) (A) Trypan blue exclusion assay to assess the cytotoxicity IC50 of Tat-SP4 in SHP-77 and H146 cell lines. Cells were treated with Tat-SP4 at a series of concentrations for 24 h. The number of viable cells was determined manually using a hemocytometer and the trypan blue dye exclusion method.

SHP-77 cells [2] = assay: Trypan blue exclusion cell viability assay, 24 h; format: cell-based; settings: 24 h treatment, triplicate, mean, read-out: cytotoxicity IC50
Protocol: as §1, §2

in vitro = settings: human, Beas-2B cells (normal bronchial epithelial)
Protocol: as §1, §2

SHP-77 xenograft = SHP-77 xenograft model; format: in vivo; settings: male nude mice, 40 mg/kg/day i.p., heart, liver, spleen, lung, kidney, stomach
Protocol: Animal experiments were carried out according to the guidelines of the Centralized Animal Facilities of the Hong Kong Polytechnic University. Male nude mice, 5–6 weeks in age, were purchased from the Centralized Animal Facilities of the Hong Kong Polytechnic University. Exponentially growing SHP-77 cells were harvested and resuspended in PBS with a concentration of 1 ×10^8 cells per ml. Mixed cell suspensions with Matrigel (Corning) in a 1:1 volume ratio with 5 × 10^5 SHP-77 cells were injected subcutaneously into the right-lower back of the mice. The tumor volume was calculated by the equation of Length × Width × Width/2. Mice were divided randomly into two groups (8 animals/group) when the tumor volume reached 50–60 mm^3. Tat-SP4 was administered intraperitoneally at 40 mg/kg every day, while PBS was administered to mice in the control group. The tumor volume was measured every other day. Treatments were continued until the tumor volume in the mice in the control group reached the maximum volume allowable according to the Centralized Animal Facilities of the Hong Kong Polytechnic University. At the end of the experiment, mice were sacrificed, and both tumors and vital organs were harvested for analysis. Tumor weights were measured after resection. […]
Figure 7 The anti-proliferative efficacy of Tat-SP4 in the SHP-77 xenograft model. […] The tumor volume was recorded every other day. […]

SHP-77 cells [3] = assay: Seahorse XF Mito Stress Test, oxygen consumption rate; format: cell-based; settings: digoxin pretreatment followed by Tat-SP4
Protocol: Oxygen consumption in intact cells was assessed using an XFe24 Extracellular Flux Analyzer (Agilent, Santa Clara, CA, USA) following the manufacturer’s standard protocol. Briefly, one day prior to the experiment, an XF24 cell culture microplate was coated with 100 µg/mL poly-lysine and incubated in a CO2 incubator at 37 °C. On the same day, 1 mL of XF calibrant was added to each well of the utility plate to hydrate the sensor, and the XF24 sensor cartridge was incubated overnight in a non-CO2 incubator at 37 °C. On the day of the experiment, the coated XF24 cell culture microplate was washed with PBS and then allowed to air dry. Then, SHP-77 cells were seeded at a density of 1.5 × 10^5 cells per well in the coated XF24 cell culture microplate with the XF assay medium containing 1 mM sodium pyruvate, 2 mM glutamine, and 10 mM glucose and incubated for 1 h in a non-CO2 incubator at 37 °C.
Figure 4 Tat-SP4 impairs mitochondrial function and OXPHOS activity. […] Cells were stained with TMRM for 30 min and analyzed using flow cytometry. […] Fluorescence intensity is directly proportional to the amount of ROS in the cell. (C) OCR was measured using the Mito Stress Test with Agilent Seahorse Analyzer. […] (D) Quantification of basal maximum respiration changes respiration after Tat-SP4 treatment and in (A). **** p < 0.0001. […]

SHP-77 cells [4] = assay: Intracellular Ca2+ imaging with genetically encoded indicators; format: cell-based; settings: 10 µM digoxin pretreatment 1 h, then 10 µM Tat-SP4
Protocol: Genetically encoded Ca^2+ indicators used in this study include mito-GCaMP5G, cyto-RCaMP1h, and G-CEPIA1er. SHP-77 cells were plated in 6-well plates to allow transfection. Cells were transfected with either mito-GCaMP5G, cyto-RCaMP1h, or G-CEPIA1er cDNA using Lipofectamine 2000 and incubated for 36 h. After transfection, cells were collected and evenly distributed into 24-well plates in HBSS buffer (Gibco) for imaging. Time-lapse fluorescence imaging was performed using an Olympus inverted epifluorescence microscope equipped with a ×20 objective and appropriate excitation/emission filter sets. Images were acquired every 3 s.
To monitor subcellular Ca^2+ dynamics, SHP-77 cells expressing mito-GCaMP5G, cyto-RCaMP1h, or G-CEPIA1er were imaged to capture Ca^2+ fluctuations in the mitochondria, cytosol, and endoplasmic reticulum, respectively. Tat-SP4 or other agonists were applied 60 s after the start of imaging. Fluorescence signals were quantified as ΔF/F0, where ΔF represents the change in fluorescence at each time point and F0 denotes the baseline fluorescence.
(A,B) SHP-77 cells were transfected with cyto-RCaMP1h (A) or mito-GCaAMP5G (B) for 36 h. […] SHP-77 cells were pretreated with 10µM digoxin for 1 h, followed by the stimulation of Tat-SP4.

Compound: CCOC(=O)c1ccc(NC2CCCCC2)c(N)c1 [Ferrostatin-1]
- rescue of Tat-SP4-induced cell death by cell death program inhibitor (SHP-77 cells [1]): did not rescue

Compound: CN1C(=O)C(Cc2c[nH]c3ccccc23)NC1=S (stereo not shown) [Necrostatin-1]
- rescue of Tat-SP4-induced cell death by cell death program inhibitor (SHP-77 cells [1]): did not rescue

Compound: CC(=O)N[C@@H](Cc1ccc(O)cc1)C(=O)NCC(=O)N[C@@H](CCCNC(=N)N)C(=O)N[C@@H](CCCCN)C(=O)N[C@@H](CCCCN)C(=O)N[C@@H](CCCNC(=N)N)C(=O)N[C@@H](CCCNC(=N)N)C(=O)N[C@@H](CCC(N)=O)C(=O)N[C@@H](CCCNC(=N)N)C(=O)N[C@@H](CCCNC(=N)N)C(=O)N[C@@H](CCCNC(=N)N)C(=O)N[C@@H](CCCNC(=N)N)C(=O)N[C@@H](CC(C)C)C(=O)N[C@@H](CO)C(=O)N[C@@H](CCC(=O)O)C(=O)N[C@@H](CC(C)C)C(=O)N[C@]1(C)CCCCCCC=CCCC[C@@](C)(C(=O)N[C@@H](C)C(N)=O)NC(=O)[C@H](CCCNC(=N)N)NC(=O)[C@H](CCC(N)=O)NC(=O)[C@H](CCCCN)NC(=O)[C@H](CCC(=O)O)NC(=O)[C@H](CCCNC(=N)N)NC(=O)[C@H](CC(=O)O)NC1=O [Tat-SP4] (Ac-YGRKKRRQRRRRLSEL[R8]DREKQR[S5]A-NH2; staple 17-24)
- IC50 (H146 cells): 17.6 µM
- IC50 (SHP-77 cells [2]): 7.66 µM
- IC50 at 24 h (in vitro): 94.9 µM
- body weight and gross morphology of major organs (SHP-77 xenograft): no abnormal changes

Compound: COC(=O)C[C@H](NC(=O)[C@H](C)NC(=O)[C@@H](NC(=O)OCc1ccccc1)C(C)C)C(=O)CF [Z-VAD-FMK] (Cbz-Val-Ala-Asp(OMe)-CH2F)
- rescue of Tat-SP4-induced cell death by cell death program inhibitor (SHP-77 cells [1]): had no effect
- rescue of cisplatin-induced apoptotic cell death (SHP-77 cells [1]; cisplatin 24 h): rescued

Compound: N=C(N)NC(=O)c1nc(Cl)c(N)nc1N [amiloride, Amiloride]
- rescue of Tat-SP4-induced cell death by uptake pathway inhibitor (SHP-77 cells [1]): readily rescued cell death

Compound: C[C@H]1O[C@@H](O[C@H]2[C@@H](O)C[C@H](O[C@H]3[C@@H](O)C[C@H](O[C@H]4CC[C@@]5(C)[C@H](CC[C@@H]6[C@@H]5C[C@@H](O)[C@]5(C)[C@@H](C7=CC(=O)OC7)CC[C@]65O)C4)O[C@@H]3C)O[C@@H]2C)C[C@H](O)[C@@H]1O [digoxin, Digoxin]
- basal and maximum OCR levels after Tat-SP4 with digoxin pretreatment (SHP-77 cells [3]): comparable to those for untreated controls
- effect on Ca2+ influx triggered by Tat-SP4 (cyto-RCaMP and mito-GCaMP5G) (SHP-77 cells [4]): completely abolished

Compound: Heparin
- rescue of Tat-SP4-induced cell death by uptake pathway inhibitor (SHP-77 cells [1]): readily rescued cell death

Compound: Methyl-beta-cyclodextrin [MβCD]
- rescue of Tat-SP4-induced cell death by uptake pathway inhibitor (SHP-77 cells [1]): showed no such effect
